Measurements: patent US10538520B2, “Benzamide and nicotinamide compounds and methods of using same” (OncoTartis Inc., priority 2013, dated 2020)

Assays:
U-937 = assay: Cytotoxicity towards U-937 cell line; format: cell-based; settings: Homo sapiens
Protocol: (§1) In various embodiments, the compounds of the disclosure are those in which show IC50 values in cytotoxicity experiments towards cells lines MV4-11 and U937 of >20 μM, 10-20 μM, 5-10 μM, 1-5 μM, or <1 μM.
(§2) The IC50 is divided into 5 categories: A<1 μM, B 1-5 μM, C 5-10 μM, D 10-20 μM, and E>20 μM.

MV4-11 = assay: Cytotoxicity towards MV4-11 cell line; format: cell-based; settings: Homo sapiens
Protocol: as §1, §2

Row | Structure (SMILES) | IC50 (U-937) [nM] | IC50 (MV4-11) [nM]
1 | O=C(NCCCc1cn[nH]c1)c1ccc(-n2cnnc2)c(C#Cc2ccccc2)c1 [TT-03237] | > 20000 | > 20000
2 | O=C(NCCCn1ccnc1)c1ccc(-n2cccn2)c(C#Cc2cccc(Cl)c2)c1 [TT-02749] | < 1000 | < 1000
3 | CN(C)c1cccc(C#Cc2cc(C(=O)NCCCc3cn[nH]c3)ccc2-n2cccn2)n1 [TT-03623] | < 1000 | < 1000
4 | Cc1n[nH]c(SCCNC(=O)c2ccc(-n3cccn3)c(C#Cc3cccnc3)c2)n1 [TT-02940] | 10000 to 20000 | > 20000
5 | Cc1cccc(C#Cc2cc(C(=O)NCCCc3cn[nH]c3)ccc2-n2cccn2)c1 [TT-03328] | < 1000 | < 1000
6 | O=C(NCCCc1cn[nH]c1)c1ccc(N2CCOCC2)c(C#Cc2ccc(Cl)nc2)c1 [TT-03655] | < 1000 | < 1000
7 | O=C(NCCCn1ccnc1)c1ccc(-n2cccn2)c(C#Cc2ccccn2)c1 [TT-02695] | < 1000 | < 1000
8 | C[C@@H]1CN(c2ncc(C(=O)NC/C=C/c3cn[nH]c3)cc2C#Cc2ccc(Cl)cc2)C[C@H](C)O1 [TT-03752] | < 1000 | < 1000
9 | O=C(NCCCn1ccnc1)c1cc(C#Cc2ccccc2)c2nccn2c1 [TT-02760] | 10000 to 20000 | 10000 to 20000
10 | O=C(NCCCCn1ccnc1)c1ccc(-n2cccn2)c(C#Cc2ccccc2)c1 [TT-02717] | < 1000 | < 1000
11 | O=C(NCCCc1cn[nH]c1)c1ccc(N2CCCCC2)c(C#Cc2ccc(F)cc2)c1 [TT-03588] | < 1000 | < 1000
12 | N#Cc1cccc(C#Cc2cc(C(=O)NCCCc3cn[nH]c3)ccc2-n2cccn2)c1 [TT-03357] | < 1000 | < 1000
13 | O=C(NCCCN1CCCC1=O)c1ccc(-n2cccn2)c(C#Cc2cccnc2)c1 [TT-02937] | > 20000 | > 20000
14 | C[C@@H]1CN(c2ncc(C(=O)NCCCc3cn[nH]c3)cc2C#Cc2ccc(F)cc2)C[C@H](C)O1 [TT-03750] | < 1000 | < 1000
15 | O=C(NCCCn1ccnc1)c1ccc(-n2cnnc2)c(C#Cc2ccccc2)c1 [TT-02731] | < 1000 | < 1000
16 | Cn1cnnc1C1CCN(C(=O)c2ccc(-n3cccn3)c(C#Cc3ccccc3)c2)C1 (centres unmarked) [TT-02803] | < 1000 | > 20000
17 | O=C(NCCCn1ccnc1)c1ccc(CN2CCc3ccccc3C2)cc1 [TT-01902] | 5000 to 10000 | 10000 to 20000

Row | Structure (SMILES) | IC50 (U-937) [nM] | IC50 (MV4-11) [nM]
18 | Cc1cc(C)n(CCNC(=O)c2ccc(-n3cccn3)c(C#Cc3ccccc3)c2)n1 [TT-02927] | 5000 to 10000 | 10000 to 20000
19 | O=C(NCCCc1cn[nH]c1)c1ccc(N2CCCC(CO)C2)c(C#Cc2ccc(F)cc2)c1 (centres unmarked) [TT-03595] | < 1000 | < 1000
20 | CN(C)CC1(O)CCN(c2ccc(C(=O)NCCCc3cn[nH]c3)cc2C#Cc2ccc(F)cc2)C1 (centres unmarked) [TT-03594] | < 1000 | < 1000
21 | CC(C)(O)C#Cc1cc(C(=O)NCCCc2cn[nH]c2)ccc1-n1cccn1 [TT-03346] | > 20000 | 5000 to 10000
22 | Cn1ccnc1CNC(=O)c1ccc(-n2cccn2)c(C#Cc2ccccc2)c1 [TT-02713] | < 1000 | > 20000
23 | O=C(NCCCc1cn[nH]c1)c1ccc(Oc2ccccc2)c(C#Cc2ccccc2)c1 [TT-03233] | < 1000 | < 1000
24 | C[C@@H]1CN(c2ccc(C(=O)N[C@@H]3CC[C@@H](n4ccnc4)[C@@H]3O)cc2C#Cc2ccc(F)cc2)C[C@H](C)O1 [TT-03733] | 1000 to 5000 | < 1000
25 | C[C@@H]1CN(c2ccc(C(=O)NCCCc3cn[nH]c3)cc2C#Cc2ccc(Cl)cc2)C[C@H](C)O1 [TT-03754] | < 1000 | < 1000
26 | O=C(NCc1cccnc1)c1ccc(-n2cccn2)c(C#Cc2cccnc2)c1 [TT-02944] | 10000 to 20000 | > 20000
27 | Cc1ccn(CCNC(=O)c2ccc(-n3cccn3)c(C#Cc3ccccc3)c2)n1 [TT-02692] | < 1000 | > 20000
28 | O=C(NCCCc1cn[nH]c1)c1ccc(-n2cccn2)c(C#Cc2cccnc2)c1 [TT-03303] | < 1000 | < 1000
29 | Cc1nncn1-c1ccc(C(=O)NCCCn2ccnc2)cc1C#Cc1ccccc1 [TT-02732] | < 1000 | < 1000
30 | O=C(NCCCn1ccnc1)c1ccc(-n2cccn2)c(C#Cc2cccc(O)c2)c1 [TT-03312] | < 1000 | < 1000
31 | O=C(NCCCn1ccnc1)c1ccc(-n2cccn2)c(CCc2ccccc2)c1 [TT-03574] | 5000 to 10000 | 5000 to 10000
32 | C[C@@H]1CN(c2ccc(C(=O)NC/C=C/c3cn[nH]c3)cc2C#Cc2ccc(F)cc2)C[C@H](C)O1 [TT-03718] | < 1000 | < 1000
33 | CCc1nnc(NC(=O)c2ccc(-n3cccn3)c(C#Cc3cccnc3)c2)s1 [TT-02932] | > 20000 | > 20000
34 | Cc1cc(CN(C)C(=O)c2ccc(-n3cccn3)c(C#Cc3ccccc3)c2)no1 [TT-02801] | 1000 to 5000 | 10000 to 20000
